Source: patent US8329645B2, “Polymyxin derivatives and uses thereof” (priority 2008, dated 2012)

Key:
[1] = tested on: E. coli IH3080; assay: Growth inhibition around wells on LB agar plates; type: cell-based, Escherichia coli
Description: Peptides synthesized in Example 1, all carrying at least two (2) but not more than three (3) positive charges, were studied for their ability to inhibit the growth of E. coli. This was tested employing LB agar (LB Agar Lennox, Difco, BD, Sparks, Md., U.S.A) plates. The indicator organism E. coli IH3080 (K1:O018) was an encapsulated strain originally isolated from a neonate suffering from meningitis (Vaara et al. 1984) and obtained from National Public Health Institute, Helsinki, Finland.
(§1) From an overnight-grown culture of IH3080 on LB agar, a suspension of approx. 10^8 cells/ml was prepared in 0.9% NaCl. Aliquots of this suspension were then pipetted on the agar plates and the plates were gently shaken to spread the suspension evenly on the entire surface of the plate. Thereafter, the unabsorbed part of the suspension was removed by using a Pasteur pipette. After the surface had dried, small wells (diameter, 2 mm) were drilled on the plates (five wells per plate) by using a sterile sharp-edged narrow metal tube, single-use pipette tip, and vacuum suction. An alternative method used a swab to spread the inoculum. […] Controls included 0.9% NaCl solution without the compound to be tested. The plates were then incubated for 18 h at 37° C. whereafter the diameters of growth inhibition zones around each well were measured; the diameter of the well itself was not reduced. Finally, the diameters were converted to surface areas of growth inhibition (in square mm).

[2] = tested on: Acinetobacter baumannii ATCC 19606; assay: Growth inhibition around wells on LB agar plates; type: cell-based; conditions: A. baumannii ATCC 19606
Description: as §1
(§2) Direct antibacterial activity of sixteen NAB compounds against Acinetobacter baumannii ATCC 19606 and Pseudomonas aeruginosa ATCC 27853 was tested by using the susceptibility determination method described in Example 2. Five compounds (NAB7062, NAB734, NAB737, NAB739, and NAB740) had very notable activity against A. baumannii. […] The antibacterial activity of NAB739 and NAB740 were as strong as or even stronger than that of polymyxin B.

[3] = tested on: Pseudomonas aeruginosa ATCC 27853; assay: Growth inhibition around wells on LB agar plates; type: cell-based; conditions: Ps. aeruginosa ATCC 27853
Description: (§3) From an overnight-grown culture of IH3080 on LB agar, a suspension of approx. 10^8 cells/ml was prepared in 0.9% NaCl. Aliquots of this suspension were then pipetted on the agar plates and the plates were gently shaken to spread the suspension evenly on the entire surface of the plate. Thereafter, the unabsorbed part of the suspension was removed by using a Pasteur pipette. After the surface had dried, small wells (diameter, 2 mm) were drilled on the plates (five wells per plate) by using a sterile sharp-edged narrow metal tube, single-use pipette tip, and vacuum suction. An alternative method used a swab to spread the inoculum. Samples (4 μl and 10 μl) of the peptide solution in 0.9% NaCl (at concentrations of 1 μg/ml and 0.1 μg/ml) were then pipetted to the wells and the sample fluids were allowed to absorb. Controls included 0.9% NaCl solution without the compound to be tested. The plates were then incubated for 18 h at 37° C. whereafter the diameters of growth inhibition zones around each well were measured; the diameter of the well itself was not reduced. Finally, the diameters were converted to surface areas of growth inhibition (in square mm).
as §2

[4] = tested on: E. coli IH3080; assay: Sensitization to rifampin: growth inhibition around wells on LB plates containing rifampin; type: cell-based, Escherichia coli
Description: as §3

[5] = tested on: A. baumannii ATCC 19606; assay: as above; type: cell-based, Acinetobacter baumannii; conditions: 4 μg
[6] = tested on: Ps. aeruginosa ATCC 27853; assay: as above; type: cell-based, Pseudomonas aeruginosa; conditions: 4 μg
[7] = 4 μg of compound, rifampin 0 μg/ml
[8] = 4 μg of compound, rifampin 1.0 μg/ml
[9] = 4 μg of compound, rifampin 0.1 μg/ml

In the case of “DA-Thr-Abu-cy[Dab-Dab-DPhe-Leu-Dab-Dab-Thr-] [NAB 7062]”, the “growth inhibition around a well” value ([1]; 10 μg of compound per well) is reported as 99 square millimeters, the “growth inhibition around a well” value ([2]; 4 μg) is reported as 13 square millimeters and the “growth inhibition around a well” value ([2]; 10 μg) is reported as 38 square millimeters. The “growth inhibition around a well” value ([3]; 4 μg) was 0 square millimeters, the “growth inhibition around a well” value ([3]; 10 μg) was 0 square millimeters and the “growth inhibition around a well in the presence of rifampin” value [4, 7] was 50 square millimeters. For the same substance, the “growth inhibition around a well in the presence of rifampin” value [4, 8] was 104 square millimeters, the “growth inhibition around a well in the presence of rifampin” value ([5]; rifampin 0 μg/ml) was 13 square millimeters and the “growth inhibition around a well in the presence of rifampin” value ([5]; rifampin 0.1 μg/ml) was 50 square millimeters. The “growth inhibition around a well in the presence of rifampin” value ([5]; rifampin 0.3 μg/ml) was 95 square millimeters, the “growth inhibition around a well in the presence of rifampin” value ([6]; rifampin 0 μg/ml) was 0 square millimeters and the “growth inhibition around a well in the presence of rifampin” value ([6]; rifampin 0.1 μg/ml) was 0 square millimeters. For the same substance, the “growth inhibition around a well in the presence of rifampin” value ([6]; rifampin 0.3 μg/ml) was 7 square millimeters.
With “DA-cy[Dab-Dab-DPhe-Leu-Dab-Dab-Thr-] [NAB 736]” the “growth inhibition around a well” value ([1]; 4 μg of compound per well) was 0 square millimeters, the “growth inhibition around a well” value ([1]; 10 μg of compound per well) was 0 square millimeters and the “growth inhibition around a well” value ([2]; 4 μg) was 0 square millimeters. For the same substance, the “growth inhibition around a well” value ([2]; 10 μg) was 0 square millimeters, the “growth inhibition around a well” value ([3]; 4 μg) was 38 square millimeters and the “growth inhibition around a well” value ([3]; 10 μg) was 79 square millimeters. For the same substance, the “growth inhibition around a well in the presence of rifampin” value [4, 7] was 0 square millimeters, the “growth inhibition around a well in the presence of rifampin” value [4, 9] was 113 square millimeters and the “growth inhibition around a well in the presence of rifampin” value [4, 8] was 133 square millimeters. The “growth inhibition around a well in the presence of rifampin” value ([5]; rifampin 0 μg/ml) was 0 square millimeters, the “growth inhibition around a well in the presence of rifampin” value ([5]; rifampin 0.1 μg/ml) was 95 square millimeters and the “growth inhibition around a well in the presence of rifampin” value ([5]; rifampin 0.3 μg/ml) was 154 square millimeters. For the same substance, the “growth inhibition around a well in the presence of rifampin” value ([6]; rifampin 0 μg/ml) was 38 square millimeters, the “growth inhibition around a well in the presence of rifampin” value ([6]; rifampin 0.1 μg/ml) was 38 square millimeters and the “growth inhibition around a well in the presence of rifampin” value ([6]; rifampin 0.3 μg/ml) was 38 square millimeters.
In the case of Deacylcolistin [reference compound], the “growth inhibition around a well” value ([1]; 10 μg of compound per well) is reported as 95 square millimeters, the “growth inhibition around a well in the presence of rifampin” value [4, 7] is reported as 79 square millimeters and the “growth inhibition around a well in the presence of rifampin” value [4, 9] is reported as 87 square millimeters. The “growth inhibition around a well in the presence of rifampin” value [4, 8] was 127 square millimeters.
For Deacylpolymyxin B [reference compound], the “growth inhibition around a well” value ([1]; 10 μg of compound per well) was 113 square millimeters, the “growth inhibition around a well in the presence of rifampin” value [4, 7] was 57 square millimeters and the “growth inhibition around a well in the presence of rifampin” value [4, 9] was 79 square millimeters. The “growth inhibition around a well in the presence of rifampin” value [4, 8] was 127 square millimeters.
For “MHA-Abu-Thr-Abu-cy[Dab-Dab-DPhe-Leu-Dab-Dab-Thr-] [NAB 707]”, the “growth inhibition around a well” value ([1]; 4 μg of compound per well) was 5 square millimeters, the “growth inhibition around a well” value ([1]; 10 μg of compound per well) was 7 square millimeters and the “growth inhibition around a well in the presence of rifampin” value [4, 7] was 5 square millimeters. For the same substance, the “growth inhibition around a well in the presence of rifampin” value [4, 9] was 87 square millimeters and the “growth inhibition around a well in the presence of rifampin” value [4, 8] was 113 square millimeters.
“MHA-Dab-Thr-Dab-cy[Dab-Dab-DPhe-Leu-Abu-Abu-Thr-] [NAB 721]” was tested, and the “growth inhibition around a well” value ([1]; 4 μg of compound per well) was 0 square millimeters, the “growth inhibition around a well” value ([1]; 10 μg of compound per well) was 0 square millimeters and the “growth inhibition around a well in the presence of rifampin” value [4, 7] was 0 square millimeters. The “growth inhibition around a well in the presence of rifampin” value [4, 9] was 13 square millimeters and the “growth inhibition around a well in the presence of rifampin” value [4, 8] was 28 square millimeters.
“MHA-Thr-Abu-cy[Dab-Dab-DPhe-Leu-Dab-Dab-Thr-] [NAB 706]” was tested, and the “growth inhibition around a well” value ([1]; 4 μg of compound per well) was 5 square millimeters, the “growth inhibition around a well” value ([1]; 10 μg of compound per well) was 7 square millimeters and the “growth inhibition around a well in the presence of rifampin” value [4, 7] was 5 square millimeters. The “growth inhibition around a well in the presence of rifampin” value [4, 9] was 79 square millimeters and the “growth inhibition around a well in the presence of rifampin” value [4, 8] was 133 square millimeters.
With “OA-Abu-cy[Dab-Dab-DPhe-Leu-Dab-Dab-Thr-] [NAB 713]” the “growth inhibition around a well” value ([1]; 4 μg of compound per well) was 0 square millimeters, the “growth inhibition around a well” value ([1]; 10 μg of compound per well) was 0 square millimeters and the “growth inhibition around a well in the presence of rifampin” value [4, 7] was 0 square millimeters. For the same substance, the “growth inhibition around a well in the presence of rifampin” value [4, 9] was 20 square millimeters and the “growth inhibition around a well in the presence of rifampin” value [4, 8] was 38 square millimeters.
In the case of “OA-DAla-DAla-cy[Dab-Dab-DPhe-Leu-Dab-Dab-Thr-] [NAB 733]”, the “growth inhibition around a well” value ([1]; 4 μg of compound per well) is reported as 0 square millimeters, the “growth inhibition around a well” value ([1]; 10 μg of compound per well) is reported as 0 square millimeters and the “growth inhibition around a well in the presence of rifampin” value [4, 7] is reported as 0 square millimeters. The “growth inhibition around a well in the presence of rifampin” value [4, 9] was 95 square millimeters and the “growth inhibition around a well in the presence of rifampin” value [4, 8] was 113 square millimeters.
For “OA-Thr-Abu-cy[Dab-Abu-DPhe-Leu-Dab-Dab-Thr-] [NAB 710]”, the “growth inhibition around a well” value ([1]; 4 μg of compound per well) was 0 square millimeters, the “growth inhibition around a well” value ([1]; 10 μg of compound per well) was 7 square millimeters and the “growth inhibition around a well in the presence of rifampin” value [4, 7] was 0 square millimeters. For the same substance, the “growth inhibition around a well in the presence of rifampin” value [4, 9] was 7 square millimeters and the “growth inhibition around a well in the presence of rifampin” value [4, 8] was 13 square millimeters.
In the case of “OA-Thr-Abu-cy[Dab-Dab-DPhe-Leu-Dab-Abu-Thr-] [NAB 709]”, the “growth inhibition around a well” value ([1]; 4 μg of compound per well) is reported as 0 square millimeters, the “growth inhibition around a well” value ([1]; 10 μg of compound per well) is reported as 0 square millimeters and the “growth inhibition around a well in the presence of rifampin” value [4, 7] is reported as 0 square millimeters. For the same substance, the “growth inhibition around a well in the presence of rifampin” value [4, 9] was 0 square millimeters and the “growth inhibition around a well in the presence of rifampin” value [4, 8] was 13 square millimeters.
With “OA-Thr-Abu-cy[Dab-Lys-DPhe-Leu-Dab-Dab-Thr-] [NAB 731]” the “growth inhibition around a well” value ([1]; 4 μg of compound per well) was 0 square millimeters, the “growth inhibition around a well” value ([1]; 10 μg of compound per well) was 0 square millimeters and the “growth inhibition around a well in the presence of rifampin” value [4, 7] was 0 square millimeters. The “growth inhibition around a well in the presence of rifampin” value [4, 9] was 0 square millimeters, the “growth inhibition around a well in the presence of rifampin” value [4, 8] was 5 square millimeters and the “growth inhibition around a well in the presence of rifampin” value ([4]; 10 μg of compound, rifampin 1.0 μg/ml) was 22 square millimeters.
For “OA-Thr-DThr-cy[Dab-Dab-DPhe-Thr-Dab-Dab-Thr-] [NAB 737]”, the “growth inhibition around a well” value ([2]; 4 μg) was 38 square millimeters, the “growth inhibition around a well” value ([2]; 10 μg) was 79 square millimeters and the “growth inhibition around a well” value ([3]; 4 μg) was 0 square millimeters. For the same substance, the “growth inhibition around a well” value ([3]; 10 μg) was 28 square millimeters, the “growth inhibition around a well in the presence of rifampin” value [4, 7] was 133 square millimeters and the “growth inhibition around a well in the presence of rifampin” value [4, 9] was 177 square millimeters. For the same substance, the “growth inhibition around a well in the presence of rifampin” value [4, 8] was 201 square millimeters, the “growth inhibition around a well in the presence of rifampin” value ([5]; rifampin 0 μg/ml) was 38 square millimeters and the “growth inhibition around a well in the presence of rifampin” value ([5]; rifampin 0.1 μg/ml) was 201 square millimeters. The “growth inhibition around a well in the presence of rifampin” value ([5]; rifampin 0.3 μg/ml) was 283 square millimeters, the “growth inhibition around a well in the presence of rifampin” value ([6]; rifampin 0 μg/ml) was 0 square millimeters and the “growth inhibition around a well in the presence of rifampin” value ([6]; rifampin 0.3 μg/ml) was 20 square millimeters.
For “OA-Thr-Dab-cy[Dab-Abu-DPhe-Leu-Dab-Dab-Thr-] [NAB 715]”, the “growth inhibition around a well” value ([1]; 4 μg of compound per well) was 0 square millimeters, the “growth inhibition around a well” value ([1]; 10 μg of compound per well) was 0 square millimeters and the “growth inhibition around a well in the presence of rifampin” value [4, 7] was 0 square millimeters. The “growth inhibition around a well in the presence of rifampin” value [4, 9] was 0 square millimeters and the “growth inhibition around a well in the presence of rifampin” value [4, 8] was 33 square millimeters.
In the case of “Polymyxin B heptapeptide [reference compound]”, the “growth inhibition around a well” value ([1]; 4 μg of compound per well) is reported as 0 square millimeters, the “growth inhibition around a well” value ([1]; 10 μg of compound per well) is reported as 0 square millimeters and the “growth inhibition around a well in the presence of rifampin” value [4, 7] is reported as 0 square millimeters. The “growth inhibition around a well in the presence of rifampin” value [4, 9] was 0 square millimeters and the “growth inhibition around a well in the presence of rifampin” value [4, 8] was 38 square millimeters.
